A short description of data set [1]: MDR1 LLC-PK1 and BCRP MDCKII permeability assay: permeability coefficient (Papp). The format is in vitro ADME. From the text: (§1) Final organic concentration in the assay was 1%.
Data set [2] has as its target full-length FLAG-tagged B-Raf(V600E) (Homo sapiens (Human), UniProt P15056, V600E). In words: BRAF V600E enzyme assay (TR-FRET competitive displacement). Particulars: averaged IC50; TR-FRET tracer displacement, 60 min. The format is binding. How it is done:
A competitive displacement assay was configured for B-Raf that monitors the amount of a fluorescently-tagged “tracer” bound to B-Raf via TR-FRET from an anti-tag Eu-labeled antibody also bound to B-Raf. For full-length FLAG-tagged B-Raf(V600E), the assay mixtures consisted of 25 mM K^+HEPES, pH 7.4, 10 mM MgCl2, 0.01% Triton X-100, 1 mM DTT, 2% DMSO (from compound), 50 nM Tracer 1710 (ThermoFisher, PR9176A), 0.5 nM Eu anti-FLAG (M2)-cryptate Ab (Cisbio, 61FG2KLB) and 5 nM full-length, N-terminally FLAG-tagged B-Raf(V600E) (Origene Technologies, TP700031. Compounds were typically diluted in DMSO across an 11-point dosing range created using a 3-fold serial dilution protocol at a top dose of 10 μM. The assay was run in 384-well, polystyrene, low-volume, non-treated, white microtiter plates (Costar 4512) in a final volume of 12 μL. Low control wells included 1 μM of a potent B-Raf inhibitor as a control. The assays were incubated at ambient temperature (typically 22° C.) for 60 min and then read on a PerkinElmer EnVision microplate reader using standard TRF settings (λEx=320 nm, λEm=615 & 665 nm). The ratioed counts (665 nm/615 nm) were converted to percent of control (POC) using the following equation:
[formula] • where: • Xmax Average Uninhibited Controls • Xmin Average Background
A 4-parameter logistic model was the fit to the POC data for each compound. From that fit, the IC50 was estimated and is defined as the concentration of compound at which the best-fit curve crosses 50 POC.
(In general: Time-resolved FRET reads energy transfer from a long-lived donor to a nearby acceptor.)

A further data set addresses P-gp (MDR1) (Homo sapiens (Human), UniProt P08183). In words: MDR1 LLC-PK1 permeability assay: efflux ratio. The following applies: pig. The format is in vitro ADME.
Description: as §1

Another data set addresses BCRP (Homo sapiens (Human), UniProt Q9UNQ0). The data set can be described thus: BCRP MDCKII permeability assay: efflux ratio. The format is in vitro ADME. The following applies: dog.
A further data set has as its system A375 cells. In words: Cellular phospho-ERK inhibition assay in A375 cells. The format is cell-based. Particulars: Homo sapiens, A-375, A375 cells (head prints A357), 2 hours treatment, read-out: A357 cell IC50. The procedure:
A375 and H1755 cells were obtained from the American Type Culture Collection (ATCC, Rockville, MD). A375 cells were maintained in DMEM growth medium containing 10% FBS. H1755 cells were maintained in RPMI growth medium containing 10% FBS.
Cells were harvested according to standard protocols, counted and plated onto flat-bottom, 96-well tissue culture plates (Costar #3599) at 2.5×10^4 cells/well for A375 cells and 1.5×10^4 cells/well for H1755 cells in 100 μL/well of growth medium containing 10% FBS. After an overnight incubation at 37° C. with 5% CO2 cells were treated for 2 hours at 37° C., 5% CO2 with compounds prepared as a 9-point, 1:3.33 fold dilution series with final compound concentrations ranging from 66 pM-10 μM and a constant DMSO concentration of 0.25%. Control wells contained either 0.25% DMSO alone (uninhibited control) or 10 μM binimetinib (complete inhibition control). The levels of phosphorylated ERK are determined using an In Cell Western protocol: following compound incubation, growth medium was discarded, and cells were fixed with 0.4% formaldehyde in PBS for 20 minutes at room temperature. Cells were permeabilized with 100% methanol for 10 minutes at room temperature. Plates were washed with PBS containing 0.05% Tween-20 and blocked for 1 hour at room temperature with LI-COR Blocking Buffer (LI-COR Biosciences; Cat #927-40000). Plates were then incubated for 2 hours at room temperature with 50 μL of a 1:400 dilution of anti-phospho-ERK1/2 (Thr202/Tyr204) (Cell Signaling; Cat #9101) and a 1:1000 dilution of anti-GAPDH (Millipore; Cat #MAB374) in LI-COR blocking buffer containing 0.05% Tween-20. Plates were washed with PBS containing […] Tween-20 then incubated at room temperature for 1 hour with 50 μL of a 1:1000 dilution of anti-rabbit AlexaFluor 680 (Life Technologies; Cat #A21109) and a 1:1000 dilution of anti-mouse IRDye 800CW (LI-COR; Cat #926-32210) in LI-COR blocking buffer containing 0.05% Tween-20. Plates were analyzed by reading on an Odyssey CLx infrared scanner. For each well, the phospho-ERK signal was normalized to the GAPDH signal and converted to POC using the following equation:
[formula] • Where: • Xmax Average Uninhibited Controls • Xmin Average Complete Inhibition Controls IC50 values were then calculated using a 4-parameter fit in XLfit software and are provided in Table A1.

Counter-ions that a name gives are not always drawn.

Sequence of P-gp (MDR1) (P08183 whole entry, species assumed): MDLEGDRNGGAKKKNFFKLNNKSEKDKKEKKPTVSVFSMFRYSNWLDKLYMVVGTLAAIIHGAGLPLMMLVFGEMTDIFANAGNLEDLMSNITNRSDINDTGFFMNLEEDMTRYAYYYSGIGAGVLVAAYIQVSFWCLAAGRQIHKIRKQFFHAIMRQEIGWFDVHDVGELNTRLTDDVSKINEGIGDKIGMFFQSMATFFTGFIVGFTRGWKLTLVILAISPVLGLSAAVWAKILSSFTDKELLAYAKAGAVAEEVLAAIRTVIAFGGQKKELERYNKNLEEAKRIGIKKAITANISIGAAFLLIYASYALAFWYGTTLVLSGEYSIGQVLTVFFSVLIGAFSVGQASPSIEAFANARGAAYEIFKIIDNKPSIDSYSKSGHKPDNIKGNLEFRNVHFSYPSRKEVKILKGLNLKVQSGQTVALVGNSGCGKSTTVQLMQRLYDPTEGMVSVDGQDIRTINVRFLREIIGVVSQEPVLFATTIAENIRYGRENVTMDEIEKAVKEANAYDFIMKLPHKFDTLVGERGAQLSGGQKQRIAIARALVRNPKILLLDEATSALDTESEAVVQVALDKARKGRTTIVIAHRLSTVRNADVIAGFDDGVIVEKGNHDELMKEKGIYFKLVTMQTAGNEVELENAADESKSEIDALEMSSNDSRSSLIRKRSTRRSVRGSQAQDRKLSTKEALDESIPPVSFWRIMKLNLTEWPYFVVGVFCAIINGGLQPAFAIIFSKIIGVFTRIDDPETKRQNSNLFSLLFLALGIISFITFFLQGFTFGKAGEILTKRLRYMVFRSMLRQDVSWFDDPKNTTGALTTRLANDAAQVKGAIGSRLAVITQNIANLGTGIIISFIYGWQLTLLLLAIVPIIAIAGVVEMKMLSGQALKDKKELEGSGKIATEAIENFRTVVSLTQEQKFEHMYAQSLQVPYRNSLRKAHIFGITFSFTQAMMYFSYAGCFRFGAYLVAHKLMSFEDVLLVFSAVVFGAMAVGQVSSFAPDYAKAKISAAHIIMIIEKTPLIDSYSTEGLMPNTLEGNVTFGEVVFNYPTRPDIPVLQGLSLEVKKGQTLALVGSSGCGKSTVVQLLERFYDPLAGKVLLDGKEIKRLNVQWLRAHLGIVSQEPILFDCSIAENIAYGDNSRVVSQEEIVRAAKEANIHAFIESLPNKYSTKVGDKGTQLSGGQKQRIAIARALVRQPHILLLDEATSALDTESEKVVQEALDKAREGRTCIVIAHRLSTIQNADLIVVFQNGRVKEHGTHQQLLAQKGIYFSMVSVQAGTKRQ
Sequence of full-length FLAG-tagged B-Raf(V600E) (P15056 whole entry V600E): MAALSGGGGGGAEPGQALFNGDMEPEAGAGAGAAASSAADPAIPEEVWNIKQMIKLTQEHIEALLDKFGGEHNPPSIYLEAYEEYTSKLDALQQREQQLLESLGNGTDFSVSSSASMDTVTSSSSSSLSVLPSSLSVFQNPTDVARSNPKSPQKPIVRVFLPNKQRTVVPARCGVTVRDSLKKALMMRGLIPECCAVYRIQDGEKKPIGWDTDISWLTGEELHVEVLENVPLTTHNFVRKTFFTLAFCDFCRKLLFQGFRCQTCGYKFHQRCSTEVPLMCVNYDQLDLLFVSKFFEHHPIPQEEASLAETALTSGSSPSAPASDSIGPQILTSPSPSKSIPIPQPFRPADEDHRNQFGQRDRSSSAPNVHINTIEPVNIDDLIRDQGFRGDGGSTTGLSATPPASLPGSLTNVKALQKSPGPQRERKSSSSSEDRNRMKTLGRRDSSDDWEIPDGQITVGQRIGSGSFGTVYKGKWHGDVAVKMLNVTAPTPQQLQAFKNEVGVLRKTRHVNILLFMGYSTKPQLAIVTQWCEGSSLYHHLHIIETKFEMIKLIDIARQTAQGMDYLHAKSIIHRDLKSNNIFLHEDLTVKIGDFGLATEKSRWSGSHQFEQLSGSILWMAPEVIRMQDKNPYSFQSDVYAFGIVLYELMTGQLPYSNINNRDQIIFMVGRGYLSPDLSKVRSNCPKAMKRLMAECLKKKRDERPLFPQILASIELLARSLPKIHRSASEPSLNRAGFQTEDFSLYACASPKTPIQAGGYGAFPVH
Sequence of BCRP (Q9UNQ0 whole entry): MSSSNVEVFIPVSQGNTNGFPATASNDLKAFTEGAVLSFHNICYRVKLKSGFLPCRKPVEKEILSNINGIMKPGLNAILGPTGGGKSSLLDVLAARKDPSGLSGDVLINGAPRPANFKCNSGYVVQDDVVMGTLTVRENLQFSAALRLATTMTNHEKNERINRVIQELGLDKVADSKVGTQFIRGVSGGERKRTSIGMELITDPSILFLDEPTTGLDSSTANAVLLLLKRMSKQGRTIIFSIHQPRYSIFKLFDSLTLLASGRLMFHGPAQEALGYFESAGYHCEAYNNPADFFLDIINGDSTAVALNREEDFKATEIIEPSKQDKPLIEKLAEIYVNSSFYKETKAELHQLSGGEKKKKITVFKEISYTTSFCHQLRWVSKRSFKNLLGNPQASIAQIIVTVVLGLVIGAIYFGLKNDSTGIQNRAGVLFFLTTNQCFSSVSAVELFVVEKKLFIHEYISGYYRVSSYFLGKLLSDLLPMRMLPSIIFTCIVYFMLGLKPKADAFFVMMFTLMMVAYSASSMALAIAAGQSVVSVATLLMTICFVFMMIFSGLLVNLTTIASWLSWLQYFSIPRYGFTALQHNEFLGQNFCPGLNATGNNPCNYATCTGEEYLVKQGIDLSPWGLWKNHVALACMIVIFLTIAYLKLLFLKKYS

As to `CO[C@H]1CN(S(=O)(=O)Nc2ccc(F)c(Nc3ccc4ncn(C)c(=O)c4c3C)c2Cl)C[C@@H]1F` (relative stereo) [Example 78, (trans)-N-(2-chloro-3-((3,5-dimethyl-4-oxo-3,4-dihydroquinazolin-6-yl)amino)-4-fluorophenyl)-3-fluoro-4-methoxypyrrolidine-1-sulfonamide], in data set [1], the Papp at 2 h, 1 µM was found to be 340 nm/s. The IC50 was determined as 0.114 µM in data set [2] and 0.189 µM in the data set with A375 cells. For the same compound, the efflux ratio at 2 h, 1 µM on P-gp (MDR1) is 1.5; on BCRP, 1.
In data set [1], `Cc1c(Nc2c(F)ccc(NS(=O)(=O)N3C[C@H](F)[C@@H](F)C3)c2Cl)ccc2ncn(C)c(=O)c12` (relative stereo) [Example 85, (trans)-N-(2-chloro-3-((3,5-dimethyl-4-oxo-3,4-dihydroquinazolin-6-yl)amino)-4-fluorophenyl)-3,4-difluoropyrrolidine-1-sulfonamide] displayed a Papp at 2 h, 1 µM of 260 nm/s. Moreover, the IC50 is 0.052 µM in data set [2] and 0.178 µM with A375 cells. In addition, the efflux ratio at 2 h, 1 µM was found to be 1.7 on P-gp (MDR1) and 0.9 at BCRP.
For `Cc1c(Nc2c(F)ccc(NS(=O)(=O)N3CCOCC3)c2Cl)ccc2ncn(C)c(=O)c12` [Example 79, N-(2-chloro-3-((3,5-dimethyl-4-oxo-3,4-dihydroquinazolin-6-yl)amino)-4-fluorophenyl)morpholine-4-sulfonamide], in that order: 280 nm/s, 0.111 µM, 0.138 µM, 1.3 and 1.
In the case of `Cc1c(Nc2c(F)ccc(NS(=O)(=O)N3CCC4CC4C3)c2Cl)ccc2ncn(C)c(=O)c12` (centres unmarked) [Example 80], the IC50 in data set [2] turned out to be 0.103 µM; in the data set with A375 cells, 0.311 µM. In addition, at BCRP, the efflux ratio at 2 h, 1 µM was determined as 0.6.
In data set [1], `Cc1c(Nc2c(F)ccc(NS(=O)(=O)N3CCC4(CC4)C3)c2Cl)ccc2ncn(C)c(=O)c12` [Example 82, N-(2-chloro-3-((3,5-dimethyl-4-oxo-3,4-dihydroquinazolin-6-yl)amino)-4-fluorophenyl)-5-azaspiro[2.4]heptane-5-sulfonamide trifluoroacetate] had a Papp at 2 h, 1 µM of 130 nm/s. In addition, the IC50 in data set [2] was 0.069 µM; with A375 cells, 0.193 µM. Moreover, the efflux ratio at 2 h, 1 µM is 1.2 on P-gp (MDR1) and 1 on BCRP.
For `Cc1c(Nc2c(F)ccc(NS(=O)(=O)N3CCCCC3)c2Cl)ccc2ncn(C)c(=O)c12` [Example 84, N-(2-chloro-3-((3,5-dimethyl-4-oxo-3,4-dihydroquinazolin-6-yl)amino)-4-fluorophenyl)piperidine-1-sulfonamide], in that order: 180 nm/s, 0.053 µM, 0.133 µM, 0.8 and 0.8.
In turn, `Cc1c(Nc2c(F)ccc(NS(=O)(=O)N3CC4CC4(C)C3)c2Cl)ccc2ncn(C)c(=O)c12` (centres unmarked) [Example 88] yielded a Papp at 2 h, 1 µM in data set [1] of 250 nm/s. Also, the values for the half-maximal inhibitory concentration (IC50) (in data set [2]; in the data set on A375 cells) were 0.027 µM and 0.203 µM, respectively. In addition, the efflux ratio at 2 h, 1 µM is 1.2 at P-gp (MDR1) and 0.6 at BCRP.
For the compound `Cc1c(Oc2c(F)ccc(NS(=O)(=O)N3CC4CC4C3)c2Cl)ccc2ncn(C)c(=O)c12` (centres unmarked) [Example 91], the Papp at 2 h, 1 µM in data set [1] is 170 nm/s. The figures for the IC50 (in data set [2]; in the data set with A375 cells) were 0.009 µM and 0.123 µM, respectively. The values for the efflux ratio at 2 h, 1 µM at P-gp (MDR1) and on BCRP were 1.5 and 0.8, respectively.
As to `Cc1c(Nc2c(F)c(F)cc(NS(=O)(=O)N(C)C)c2Cl)ccc2ncn(C)c(=O)c12` [Example 98, N-(2-chloro-3-((3,5-dimethyl-4-oxo-3,4-dihydroquinazolin-6-yl)amino)-4,5-difluorophenyl)-(N,N-dimethyl)-sulfamide], the Papp at 2 h, 1 µM in data set [1] came to 310 nm/s. Besides, the IC50 in data set [2] was determined as 0.02 µM; with A375 cells, 0.049 µM. Moreover, the efflux ratio at 2 h, 1 µM at P-gp (MDR1) and on BCRP was 1.1 each time.
In data set [1], `Cn1cnc2ccc(Nc3c(F)ccc(NS(=O)(=O)N4CC(OC(F)F)C4)c3Cl)c(Cl)c2c1=O` [Example 143, N-(2-chloro-3-((5-chloro-3-methyl-4-oxo-3,4-dihydroquinazolin-6-yl)amino)-4-fluorophenyl)-3-(difluoromethoxy)azetidine-1-sulfonamide] yielded a Papp at 2 h, 1 µM of 160 nm/s. Further, the efflux ratio at 2 h, 1 µM on P-gp (MDR1) came out at 2.6; at BCRP it was 3.9. Further, in the data set on A375 cells, the IC50 is 0.045 µM.
The compound `Cn1cnc2ccc(Nc3c(F)ccc(NS(=O)(=O)N4CC(OC(F)F)C4)c3Cl)c(F)c2c1=O` [Example 144, N-(2-chloro-4-fluoro-3-((5-fluoro-3-methyl-4-oxo-3,4-dihydroquinazolin-6-yl)amino)phenyl)-3-(difluoromethoxy)azetidine-1-sulfonamide] gave a Papp at 2 h, 1 µM in data set [1] of 270 nm/s. Besides, the values for the IC50 (in data set [2]; in the data set on A375 cells) were 0.01 µM and 0.033 µM, respectively. Besides, on P-gp (MDR1), the efflux ratio at 2 h, 1 µM is 5.2.
`Cc1c(Nc2c(F)ccc(NS(=O)(=O)N3CC(C#N)C3)c2Cl)ccc2ncn(C)c(=O)c12` [Example 146, N-(2-chloro-3-((3,5-dimethyl-4-oxo-3,4-dihydroquinazolin-6-yl)amino)-4-fluorophenyl)-3-cyanoazetidine-1-sulfonamide trifluoroacetate] came in with a Papp at 2 h, 1 µM in data set [1] of 170 nm/s. In addition, the results for the IC50 (in data set [2]; in the data set on A375 cells) were 0.027 µM and 0.031 µM, respectively. Further, on P-gp (MDR1), the efflux ratio at 2 h, 1 µM came out at 6.9.
Regarding `Cc1c(Nc2c(F)ccc(NS(=O)(=O)N3CC(C)C3)c2Cl)ccc2ncn(C)c(=O)c12` [Example 147, N-(2-chloro-3-((3,5-dimethyl-4-oxo-3,4-dihydroquinazolin-6-yl)amino)-4-fluorophenyl)-3-methylazetidine-1-sulfonamide trifluoroacetate], the Papp at 2 h, 1 µM in data set [1] came out at 280 nm/s. The values for the IC50 (in data set [2]; with A375 cells) were 0.019 µM and 0.067 µM, respectively. For the same compound, the efflux ratio at 2 h, 1 µM on P-gp (MDR1) is 1.
Regarding `Cc1c(Nc2c(F)ccc(NS(=O)(=O)N3CC4(CCC4)C3)c2Cl)ccc2ncn(C)c(=O)c12` [Example 157, N-(2-chloro-3-((3,5-dimethyl-4-oxo-3,4-dihydroquinazolin-6-yl)amino)-4-fluorophenyl)-2-azaspiro[3.3]heptane-2-sulfonamide trifluoroacetate], the apparent permeability coefficient (Papp) at 2 h, 1 µM in data set [1] was 230 nm/s. Further, the efflux ratio at 2 h, 1 µM at P-gp (MDR1) and at BCRP was 1.2 in each case. In addition, in the data set with A375 cells, the IC50 was found to be 0.886 µM.
With `Cc1c(Nc2c(F)ccc(NS(=O)(=O)N3CC(COCF)C3)c2Cl)ccc2ncn(C)c(=O)c12` [Example 164, N-(2-chloro-3-((3,5-dimethyl-4-oxo-3,4-dihydroquinazolin-6-yl)amino)-4-fluorophenyl)-3-((fluoromethoxy)methyl)azetidine-1-sulfonamide trifluoroacetate], the IC50 in data set [2] came out at 0.113 µM; in the data set with A375 cells, 1.41 µM.

The Papp is a coefficient for how fast a substance crosses the barrier. As usually defined, the IC50 is the concentration that inhibits the measured activity by half. What is called efflux ratio is the permeability from basolateral to apical divided by that in the opposite direction, in the common usage.

The values are drawn from patent US12303509B2, “Compounds for the treatment of BRAF-associated diseases and disorders” (Pfizer Inc., priority 2020, dated 2025).
